Where a SMILES comes first, the peptide text is derived from it. [ ]: non-standard residue; d: D form. The star is where a group is joined. Nva = CCC[C@H](N)C(=O)O; Cbz = O=C(OCc1ccccc1)*
Key:
[1] = test system: Bax degradation activity; test: cell-free Bax degradation assay, inhibitor added to MCF-7 cell extract; assay type: biochemical, human; settings: 10-minute preincubation of MCF-7 cell extract with inhibitor (100 mM per FIG. 9C legend), 37° C., 4 h
Method: FIGS. 9A-9F show Bax degradation depends on ubiquitination, proteasome and ATP. (FIG. 9A) Jurkat cells (0 h) were treated with either 50 μM LLnV or 10 μM lactacystin, followed by preparation of Bax immunoprecipitates (with clone 6A7), which were immunoblotted with an ubiquitin antibody. Positions of putative ubiquitinated Bax proteins (p47, p55) are indicated at left. The nature of the ˜30 kDa and ˜84 kDa remains unclear. (FIG. 9B) The [^35S]-labeled Bax (upper) or Bcl-2 (lower) protein (1 μl) were incubated at 37° C. for 2 h with either buffer Z only (lane 1) or […] protein extract of MCF-7 cells grown exponentially (lane 2) or pretreated for 8 h with […] LLnV (lane 3). (FIG. 9C) The [^35S]-labeled Bax protein (1 μl) was incubated with either buffer Z only (lane 1) or 100 μg MCF-7 cell lysate at 37° C. for 4 h, in the presence of an indicated inhibitor (100 mM; lanes 3-8) or an equal volume of DMSO (lane 2) in buffer Z. A weak band of ˜16 kDa (indicated by an arrow) is probably an intermediate product of proteasome-mediated Bax degradation. (FIG. 9D) The proteasome in MCF-7 whole cell lysate (W lys, lane 1) was precipitated by using either ultraspin (ULS) or a proteasome subunit a6 antibody (IP). Both supernatant (lanes 2, 4) and pellet (lanes 3, 5) fractions were examined by Western blot assay using antibody to the proteasome a6 subunit (MW 33 kDa). (FIG. 9E) Bax degradation assay was performed as in FIG. 9B, with addition of buffer Z (lane 1) or 100 μg protein from MCF-7 whole cell lysate (lane 2), ultraspun supernatant (lane 3) or plus the pellet (lane 4), immunodepleted supernatant (lane 5) or plus a purified 20S proteasome ([…]; lane 6), or the purified proteasome alone (2 μg; lane 7). (FIG. 9F) Bax degradation assay was performed as in FIG. 9B, in the absence (lane 3) or presence of 10 mM ATP (lane 2) or 10 mM ATP-y-S (lane 4).
In vitro Bax Degradation Assay: Human Bax-a cDNA subcloned into pcDNA3 was a gift from Dr. Hong-gang Wang. Human full length of bcl-2-a cDNA was cloned from Jurkat T cells and subcloned into pcDNA3.1(−) as described+. Both bax and bcl-2 plasmids were used for coupled in vitro transcription/translation (Promega; Madison, Wis.) in the presence of [^35S]methionine (Amersham Pharmacia Biotech; Piscataway, N.J.). Protein extracts were prepared from either MCF-7 cells or prostate tumor tissues in buffer Y (50 mM Tris-HCl, pH 7.4, 250 mM NaCl, 1% Triton X-100, 0.1% SDS, 1 mM EDTA), and used for Bax (or Bcl-2) degradation assay. Briefly, 1 microl of [^35S]-labeled Bax (or Bcl-2) protein was incubated at 37° C. for 2-4 hours with 100-200 microg protein extract in buffer Z (50 mM Tris-HCl, pH 7.4, 5 mM MgCl2, 3 mM DTT, 10 mM ATP, 10 mM phosphocreatine, 10 microg/ml creatine phosphokinase, 10 microg/ml aprotinin, 10 microg/ml leupeptin, 10% glycerol and 2 microg/ml ubiquitin). After incubation, the samples were subjected to gel electrophoresis and autoradiography. Under the cell-free assay conditions, the calpain-mediated Bax cleavage activity was blocked by omission of calcium and addition of the protease inhibitor leupeptin (Wood et al, 1998). To deplete the proteasome, MCF-7 cell lysates were either immunoprecipitated with the 20S proteasome subunit a6 antibody or ultracentrifugated at 100,000×g for 6 hours. The proteasome-enriched pellet fraction was resuspended in buffer Y.
To further study the proteasome activity that degrades Bax protein, a cell-free Bax degradation assay was developed by using an in vitro-translated, [^35S]-labeled Bax protein as substrate (FIG. 9B, upper, lane 1). The Bax degradation activity is present in protein extracts prepared from exponentially growing MCF-7 (FIG. 9), K562, VA-13, WI-38, Jurkat T or HL-60 cells. The labeled Bax was almost completely degraded by a MCF-7 cell extract after 2 to 4 hours incubation at 37° C. (FIG. 9B, upper, and FIG. 9C, lanes 2 vs. 1). […]

[2] = test system: human breast cancer (SK-BR-3, MDA-MB-468) cells; test: cellular detachment of breast cancer cells; assay type: cell-based; settings: breast cancer versus normal (MCF-10A) cells
Method: Proteasome inhibitors selectively induce apoptosis in human breast cancer, but not normal, cells. […] Cells of both human breast cancer lines became detached in a lactacystin-concentration-dependent manner (FIG. 3). No detachment was induced in the normal human breast cells MCF-10A after treatment with lactacystin for 48 hours (FIG. 3) or even 72 hours. Proteasome inhibition-induced detachment of breast cancer cells is due to apoptosis (An et al., in press).

CCC[C@@H](C=O)NC(=O)[C@H](CC(C)C)NC(=O)[C@H](CC(C)C)NC(=O)OCc1ccccc1 [LLnV] (Cbz-Leu-Leu-[Nva]-aldehyde)
Bax degradation process/activity [1]: blocked | cellular detachment [2]: selectively induced cellular detachment

CC(=O)N[C@@H](CSC(=O)[C@]1([C@@H](O)C(C)C)NC(=O)[C@H](C)[C@@H]1O)C(=O)O [lactacystin]
Bax degradation process/activity [1]: not | cellular detachment [2]: selectively induced cellular detachment

Source: US6692927B2, “Bax degradation involvement in tumor survival and progression” (University of South Florida, priority 2000, dated 2004)
